Reference: ChEMBL document CHEMBL1150540, “Aromatic P1 replacements for the highly potent HIV-1 protease inhibitor CRIXIVAN” (Bioorg Med Chem Lett, 1996)

Target: Human immunodeficiency virus type 1 protease (Human immunodeficiency virus 1, UniProt Q72874)
Experiment: Inhibition of HIV-1 protease.

Row | Structure (SMILES) | IC50 [nM]
1 | CC(C)(C)NS(=O)(=O)c1ccccc1C[C@@H](O)C[C@@H](Cc1ccccc1)C(=O)N[C@H]1c2ccccc2C[C@H]1O | 6
2 | O=C(N[C@H]1c2ccccc2C[C@H]1O)[C@H](Cc1ccccc1)C[C@H](O)Cc1ccccc1O | 1600
3 | NS(=O)(=O)c1ccccc1C[C@@H](O)C[C@@H](Cc1ccccc1)C(=O)N[C@H]1c2ccccc2C[C@H]1O | 290
4 | COc1ccccc1C[C@@H](O)C[C@@H](Cc1ccccc1)C(=O)N[C@H]1c2ccccc2C[C@H]1O | 80
5 | COc1ccc(C[C@@H](O)C[C@@H](Cc2ccccc2)C(=O)N[C@H]2c3ccccc3C[C@H]2O)c(OC)c1 | 105
6 | COc1cc(Oc2ccccc2)ccc1C[C@@H](O)C[C@@H](Cc1ccccc1)C(=O)N[C@H]1c2ccccc2C[C@H]1O | 45
7 | CSc1ccccc1C[C@@H](O)C[C@@H](Cc1ccccc1)C(=O)N[C@H]1c2ccccc2C[C@H]1O | 95
8 | CS(=O)(=O)c1ccccc1C[C@@H](O)C[C@@H](Cc1ccccc1)C(=O)N[C@H]1c2ccccc2C[C@H]1O | 314
9 | CC(C)(C)NC(=O)c1ccccc1C[C@@H](O)C[C@@H](Cc1ccccc1)C(=O)N[C@H]1c2ccccc2C[C@H]1O | 4.7
10 | Cc1ccc(C[C@@H](O)C[C@@H](Cc2ccccc2)C(=O)N[C@H]2c3ccccc3C[C@H]2O)c(C(=O)NC(C)(C)C)c1 | 1.7
11 | CC(C)COc1ccccc1C[C@@H](O)C[C@@H](Cc1ccccc1)C(=O)N[C@H]1c2ccccc2C[C@H]1O | 97
12 | CC(C)(C)NC(=O)[C@@H]1CCCCN1C[C@@H](O)C[C@@H](Cc1ccccc1)C(=O)N[C@H]1c2ccccc2C[C@H]1O | 80
13 | CC(C)(C)NC(=O)[C@@H]1CNCCN1C[C@@H](O)C[C@@H](Cc1ccccc1)C(=O)N[C@H]1c2ccccc2C[C@H]1O | 38
14 | O=C(N[C@H]1c2ccccc2C[C@H]1O)[C@H](Cc1ccccc1)C[C@H](O)Cc1ccccc1 | 1200
15 | COCOc1ccccc1C[C@@H](O)C[C@@H](Cc1ccccc1)C(=O)N[C@H]1c2ccccc2C[C@H]1O | 276

Target: Human immunodeficiency virus type 1 protease (Human immunodeficiency virus 1) (UniProt Q72874)
Experiment: In vitro inhibition of HIV-1 protease, activity expressed as CIC95 in whole cell assay.

Row | Structure (SMILES) | IC95 [nM]
16 | CC(C)(C)NC(=O)c1ccccc1C[C@@H](O)C[C@@H](Cc1ccccc1)C(=O)N[C@H]1c2ccccc2C[C@H]1O | 800
17 | Cc1ccc(C[C@@H](O)C[C@@H](Cc2ccccc2)C(=O)N[C@H]2c3ccccc3C[C@H]2O)c(C(=O)NC(C)(C)C)c1 | 400
18 | CC(C)(C)NC(=O)[C@@H]1CNCCN1C[C@@H](O)C[C@@H](Cc1ccccc1)C(=O)N[C@H]1c2ccccc2C[C@H]1O | 3000
